Test results from patent US5246945A, “Piperidine derivatives” (Nisshin Flour Milling Co., Ltd., priority 1991, dated 1993).

Test system: 5-HT3 receptors
Assay: Antagonism of 5-HT at 5-HT3 receptors: inhibition of 5-HT-induced bradycardia (von Benzold Jarisch Reflex) in anesthesized rats
Assay type: in vivo, rat
Conditions: 100 μg/kg, i.v. (intrajugular); 5-HT 30 μg/kg given 5 min. later; urethane-anesthesized rats; tested as hydrochloride except Example 9
Description: The compounds prepared in the above examples were respectively tested for antagonism of 5-HT at 5-HT3 receptors.
Administration of 5-HT (serotonin) to anesthesized rats via jugular vein induces temporary bradycardia (von Benzold Jarisch Reflex)(A.S. Paintal, Physiol. Rev., 53, 159-227 (1973)).
Thus, rats were anesthesized with urethane (1 g/kg, i.p.) and recorded for blood pressure and heart rate from left femoral artery. Percent inhibition was calculated from bradycardia induced by 5-HT (30 μg/kg) given 5 min. following intrajugular administration of a compound of the invention, taking the bradycardia induced by the intrajugular administration of 5-HT.
In this test, all of the test compounds were tested in the form of hydrochloride except for the compounds prepared in Example 9. Therefore, concentration of the test drug is expressed in terms of the concentration of the hydrochloride except for the compounds prepared in Example 9.

Compound | % Inhibition (of bradycardia induced by 5-HT) [%]
COc1cc(N)c(Cl)cc1C(=O)OC(C)C1CCCCN1C (single isomer, unassigned) [7 (less polar isomer), (1-Methyl-Z-piperidyl)ethyl 2-methoxy-4 amino-5-chlorobenzoate] | 50
CN1CCCCC1COC(=O)c1nn(C)c2ccccc12 (stereo not shown) [Example 2, 1-Methyl-2-piperidylmethyl 1-methylindazole-3-carboxylate] | 34
COc1ccc2ncc(C(=O)OCC3CCCCN3C)cc2c1 (stereo not shown) [Example 3] | 26
CC(OC(=O)c1nn(C)c2ccccc12)C1CCCCN1C (single isomer, unassigned) [1 (less polar isomer), 1-(1-Methyl-2-piperidyl)ethyl 1-methylindazole-3-carboxylate] | 49
COc1cc(N)ccc1C(=O)OC(C)C1CCCCN1C (single isomer, unassigned) [5 (more polar isomer), 1-(1-Methyl-2-piperidyl)ethyl 2-methoxy-4-aminobenzoate] | 16
COc1cc(N)c(Cl)cc1C(=O)OCC1CCCCN1C (stereo not shown) [Example 6, 1-Methyl-2-piperidylmethyl 2-methoxy-4-amino-5-chlorobenzoate] | 76
Cn1nc(C(=O)OCC2CCCC[N+]2(C)C)c2ccccc21 (stereo not shown) [Example 9, 1,1-Dimethyl-2-(1-methyl-3-indazolylcarboxymethyl)-piperidinium iodide] | 58
